Experiment: Extraction of hexanol from aqueous solution with trialkylphosphine in alkane or pure trialkylphosphine
Type: physicochemical
[1] = hexanol extraction without buffer in aqueous phase, mass ratio 9 to 1
[2] = with ammonium acetate buffer in aqueous phase, mass ratio 9 to 1

CCCCCCCCCCCCCC [none (100% tetradecane), tetradecane]
Equilibrium pH (hexanol extraction without buffer in aqueous phase): 7.01
Aq. Hexanoic acid conc. (after) [1]: 2.40 g/kg
Aq. Hexanoic acid conc. (before) [1]: 3.70 g/kg
Aq. Hexanol conc. (after) [2]: 2.75 g/kg
Org. Hexanol conc. [2]: 12.44 g/kg
Org. Hexanol conc. (without buffer in aqueous phase, mass ratio 9 to 1): 11.65 g/kg

Reference: patent US12686694B2, “Method of extracting carbonic acid, aliphatic acids, esters and alcohols from an aqueous medium” (EVONIK OPERATIONS GMBH, priority 2019, dated 2026)
